Consider 26 molecules from ChEMBL document CHEMBL1201862, “PubChem BioAssay data set” (2004).

Common to all, as to assay: inhibition of tumour cell growth, NCI panel, 48 h
Test [1] concerns DLD-1.
Test [2] relates to DMS-114.
The test system of test [3] is DMS-273.
In test [4] the test system is HOP-18.
The test system of test [5] is KM-20L2.
Test [6] concerns M19-MEL.
The subject of test [7] is SNB-78.
Test [8] deals with XF498.
Test [9] concerns RXF 631.

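How tested: cells in 96-well plates exposed to compound for 48 hours at five concentrations. GI50 is the concentration that inhibits growth by half.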 The source made the active and inactive calls. Rule as the data show it: active = GI50 up to about 1.1 µM and inactive = higher.

With `CN(C)CCCn1c2c3ccccc3ccc2c2oc(=O)c3ccccc3c21`, the GI50 in test [1] was 1.47 µM (inactive); in test [2], 1.77 µM (inactive); in test [3], 1.49 µM (inactive); in test [4], 16.6 µM (inactive); in test [5], 1.39 µM (inactive); in [6], 3.13 µM (inactive). For the same molecule, the GI50 in test [7] is 13.6 µM (inactive); in [8], 3.85 µM (inactive).
As to `O=C1c2cccc(NCCNCCO)c2C(=O)c2cccc(NCCNCCO)c21`, the GI50 is 3.18 µM (inactive) in test [1]; 0.368 µM (active) in test [2]; 2.91 µM (inactive) in [3]; 2.15 µM (inactive) in test [4]; 1.18 µM (inactive) in test [5]; 3.13 µM (inactive) in test [9]. Moreover, the GI50 in [7] was 1.52 µM (inactive); in [8], 0.556 µM (active).
With `CCN(CC)CCNC(=O)c1ccc([N+](=O)[O-])cc1OC`, the GI50 in [1], in [2], in [3], in test [5], in test [6] and in test [7] was > 100 µM (inactive) each time.
With `COc1ccc(CC#N)c(OCc2ccccc2)c1`, the GI50 was 28.1 µM (inactive) in test [1]; 30.8 µM (inactive) in test [2]; 49.4 µM (inactive) in test [3]; 14.2 µM (inactive) in test [4]; 31.3 µM (inactive) in [5]; 29.3 µM (inactive) in test [6].
For `ClC(Cl)[Si]12OCCN(CCO1)CCO2`, the GI50 in test [1], in [2], in test [3], in test [4], in [9] and in test [7] was > 100 µM (inactive) in each case.
Regarding `O=C1/C(=C\c2ccccc2)CN(C(=O)CCN2CCCCC2)C/C1=C/c1ccccc1`, the GI50 is 1.19 µM (inactive) in test [1]; 1.23 µM (inactive) in [2]; 1.44 µM (inactive) in test [3]; 3.03 µM (inactive) in test [4]; 0.811 µM (active) in test [5]; 0.658 µM (active) in test [6]. In addition, the GI50 is 1.47 µM (inactive) in [9], 2.54 µM (inactive) in [7] and 1.73 µM (inactive) in test [8].
Consider `C[C@H](OCc1ccccc1)C(=O)N1CCS(=O)(=O)N2CCC[C@@H]2C1=O`, for which the GI50 in test [1], in test [2], in test [4], in test [5], in test [6] and in test [9] was > 100 µM (inactive) throughout. Besides, the values for the GI50 in test [7] and in [8] were > 100 µM (inactive) and 0.746 µM (active), respectively.
`COC(=O)C1(O)CC(=O)CCC1c1ccc(OC)cc1` (stereo not given): the GI50 in test [1], in test [2], in test [3], in test [4], in test [5] and in [9] was > 100 µM (inactive) each time. In addition, the GI50 in test [7] is > 100 µM (inactive).
On to `COc1ccc2[nH]c(=O)cc(C)c2c1[N+](=O)[O-]`, for which the GI50 was 84.1 µM (inactive) in test [1]; > 100 µM (inactive) in [2]; > 100 µM (inactive) in [3]; > 100 µM (inactive) in test [5]; > 100 µM (inactive) in test [6]; > 100 µM (inactive) in test [9]. For the same molecule, the GI50 in test [7] and in [8] was > 100 µM (inactive) each time.
As for `CC(=O)C1=CCC2c3[nH]c4ccccc4c3CCN2C1` (stereo not given), the GI50 was 70.3 µM (inactive) in test [1]; 34.5 µM (inactive) in test [3]; > 100 µM (inactive) in test [4]; 21 µM (inactive) in test [5]; > 100 µM (inactive) in test [6]; 45.4 µM (inactive) in test [9]. For the same molecule, the GI50 was 32.1 µM (inactive) in test [7] and 62.5 µM (inactive) in test [8].
Regarding `C(=N\CC/N=C/c1cccc2ccccc12)/c1cccc2ccccc12`, the GI50 in [1], in test [2], in [3], in [4], in [5] and in [6] was > 100 µM (inactive) in each case. The GI50 in test [7] and in test [8] was > 100 µM (inactive) in each case.
With `C=CCC1OC(C)(C)Oc2ccc(OCOCCOC)cc21` (stereo not given), in [2], the GI50 was > 100 µM (inactive).
Take `O=C(c1ccco1)N(C(=S)N1CCN(c2ccccn2)CC1)c1ccccc1`: the GI50 is > 100 µM (inactive) in test [1]; 66.1 µM (inactive) in test [2]; > 100 µM (inactive) in test [3]; > 100 µM (inactive) in test [4]; > 100 µM (inactive) in test [5]; > 100 µM (inactive) in test [6]. The GI50 in test [7] is > 100 µM (inactive); in [8] it was 60.7 µM (inactive).
As for `CC12CCCCC1(C)C2Sc1ccccc1` (stereo not given), the GI50 in test [1] was 61.2 µM (inactive); in [2], 30.7 µM (inactive); in test [3] it was 47.2 µM (inactive); in test [4] it was 63.1 µM (inactive); in test [5], > 100 µM (inactive); in test [6] it was 35.9 µM (inactive). For the same molecule, the GI50 is 51.5 µM (inactive) in test [9], > 44.3 µM (inactive) in test [7] and 27.3 µM (inactive) in [8].
In the case of `Cc1ccccc1NC(=O)C1C(=O)N(c2ccccc2C)C(=O)/C1=N\NC(N)=O` (stereo not given), the GI50 is > 100 µM (inactive) in test [1]; > 100 µM (inactive) in [2]; > 100 µM (inactive) in test [3]; 92.3 µM (inactive) in test [4]; > 100 µM (inactive) in test [5]; > 100 µM (inactive) in test [6]. The GI50 in [7] is > 100 µM (inactive).
For `CCN(C1=CC(=O)NC2CCCCN12)c1ccccc1` (stereo not given), the GI50 in test [1], in test [2], in test [3], in test [4], in [5] and in test [6] was > 100 µM (inactive) in each case. Also, the GI50 in [9], in test [7] and in [8] was > 100 µM (inactive) in each case.
Consider `O=C1NC(=S)NC(=O)C1=C(O)Nc1ccccc1`, for which the GI50 in [1] was 36.6 µM (inactive); in test [2], 25.8 µM (inactive); in [3], 28.7 µM (inactive); in test [4] it was 42.4 µM (inactive); in test [5], 44.9 µM (inactive); in test [6] it was 37.2 µM (inactive). The GI50 in test [7] was 44.1 µM (inactive).
In the case of `Cc1ccc(NC(=O)C(=O)CC(=O)c2c(C)[n+]([O-])c3ccccc3[n+]2[O-])cc1C`, the GI50 in test [3] was > 100 µM (inactive); in test [4], 48.9 µM (inactive); in test [5] it was 91.8 µM (inactive); in [6], 91.2 µM (inactive); in test [7] it was > 100 µM (inactive).
Regarding `COc1c(OC(C)=O)ccc(/C=C2\N=C(C)OC2=O)c1[N+](=O)[O-]`, the GI50 in test [1], in test [3], in [4], in test [5], in test [6] and in test [9] was > 100 µM (inactive) each time. In test [7], the GI50 was > 100 µM (inactive).
With `NC1=NN(c2ccccc2)C(=O)C1C(=O)C(=O)Nc1ccccc1` (stereo not given), the GI50 in test [1], in test [2], in test [3], in [4], in test [5] and in [6] was > 100 µM (inactive) throughout. Also, the GI50 in test [7] and in test [8] was > 100 µM (inactive) each time.
Turning to `O=C(O)/C(=C/c1c(O)ccc2ccccc12)c1csc(-c2nc(/C(=C\c3c(O)ccc4ccccc34)C(=O)O)cs2)n1`, the GI50 in test [1] is 12 µM (inactive); in [2] it was 10 µM (inactive); in test [5] it was 19.4 µM (inactive); in test [6] it was 6.17 µM (inactive); in test [7], 13.6 µM (inactive).
Regarding `CC1=C(C(=O)Nc2c(C)cccc2C)C(c2ccccc2Cl)C(C(=O)Nc2c(C)cccc2C)=C(C)N1`, the GI50 in test [1], in test [2], in test [3], in [5], in test [6] and in test [7] was > 100 µM (inactive) each time. In test [8], the GI50 was > 100 µM (inactive).
For the molecule `Cc1cc2ncn(-c3nc4ccccc4nc3C(C#N)S(C)(=O)=O)c2cc1C` (stereo not given), the GI50 in [1], in test [2], in test [3], in test [5], in test [6] and in test [7] was > 100 µM (inactive) each time. The GI50 in [8] is > 100 µM (inactive).
In the case of `O=C1c2cccc(NCCCNCCO)c2C(=O)c2cccc(NCCCNCCO)c21`, the GI50 in test [1] is 2.34 µM (inactive); in test [3], 2.31 µM (inactive); in test [5], 2.75 µM (inactive); in test [7], 3.46 µM (inactive).
As for `COc1ccc(NC(=O)/C(Cc2cc(=O)oc3cc(O)ccc23)=N\NC(C)(C)C)c(OC)c1`, the GI50 in test [5], in [6], in [7] and in test [8] was > 100 µM (inactive) each time.
With `CCN(CC)CCCCC1CCN(CC(=O)N2c3cc(Cl)ccc3NC(=O)CC2C)CC1` (stereo not given), the GI50 is > 100 µM (inactive) in [1]; > 100 µM (inactive) in test [3]; > 100 µM (inactive) in test [4]; 40.9 µM (inactive) in test [5]; > 100 µM (inactive) in test [6].
